This is an account of results in patent US20110152263A1, “COMPOSITION AND METHOD FOR INHIBITING NOROVIRUS INFECTION” (priority 2006, published 2011).

The subject of data set [1] is Norwalk virus binding to the A antigen. Nature of the data set: Saliva-based blocking EIA: Norwalk virus VLP binding to A antigen. To be noted: for EC50: Norwalk VLP binding to A antigen, read-out: EC50 rNorwalk A. The arrangement: species or system Norovirus. The source says: (§1) A saliva based blocking assay offers several advantages for anti-Norovirus agent screening. First, the assay is a solid phase blocking assay which is simple and suitable for large scale screening. Second, the source of HBGAs used in the assay was from healthy human volunteers, which is likely to represent the natural forms of Norovirus receptors. Third, the assay is highly sensitive and specific. Finally, a panel of saliva samples can be assembled from different individuals representing different blood types, from which the results obtained in primary screenings can be validated.
(§2) To optimize the blocking assays, we have titrated all reagents used in the assays including the VLPs, the first and second antibodies, the blocking reagent (dried cow milk), and a panel of saliva samples from different donors. […] For comparison of daily results, eight control wells containing everything but compounds were included in each plate, and the assays were considered valid when the daily OD450 variations in these wells were less than 20%. Less than 1% of the total screening runs failed in our study.
(§3) Cow milk contains a large amount of variable proteins, lipids and glycans which can easily interfere with the assay particularly when a low concentration of compounds (μM) was used in our screening. To avoid any false-negative results, the step of addition of blotto in the EIA for all screening experiments in this study was removed.
(§4) Baculovirus-expressed recombinant capsid proteins of four Norovirus strains representing four distinct receptor binding patterns were studied: Norovirus strains Norwalk, VA387, VA207, and MOH. The procedures of production of Norovirus VLPs in insect cell Spodoptera frugiperda (Sf9) have described in “Expression, self-assembly, and antigenicity of the Norwalk virus capsid protein”, J Virol 66:6527-32, Jiang et al (1992), and in “Baculovirus expression and antigenic characterization of the capsid proteins of three Norwalk-like viruses”, Arch Virol 147:119-30, Jiang et al. (2002), the disclosures of which are incorporated herein by reference. Briefly, a cDNA from the 3′ end of the genome containing the viral capsid gene (open reading frame 2 [ORF-2] was cloned from the viral RNA extracted from stool specimens. The recombinant baculoviruses carry the viral capsid genes were constructed from the cloned cDNAs using the Bac to Bac expression system according to the manufacture's instructions (Invitrogen Life Technologies, Carlsbad, Calif.). VLPs were partially purified by sucrose gradient centrifugation and stored at −80° C. Protein concentrations were determined by measuring the optical density at 280 nm (OD280) using a GeneQuant spectrophotometer (Pharmacia, Mich.) and by comparison with a bovine serum albumin standard in a sodium dodecyl sulfate-polyacrylamide gel (25). The purity of VLPs used in this study was over 90% which was determined by SDS-PAGE analysis.
(§5) Saliva samples were collected from healthy adult volunteers under an approval of human subject research protocol by the Institutional Review Board at the Cincinnati Children's Hospital Medical Center. Except for gender and race, no other personal information was collected. A total of 5-10 ml of saliva was collected from each volunteer, and the samples were processed immediately after collection. To avoid potential Norovirus-specific antibodies that may interfere in the receptor binding assays, saliva samples were boiled at 100° C. for 10 min, and then centrifuged at 10,000×g for 5 min. The clear supernatant was stored at −80° C. until use. The HBGA types of the saliva samples were determined by enzyme immune assays with monoclonal antibodies specific to human HBGAs (8). Saliva sample from a type A donor was selected for the primary screening, and a total of 25 saliva samples of known ABO, secretor, and Lewis types were selected for further studies to confirm the primary screening results. […]

The subject of data set [2] is Norwalk virus binding to the H antigen. Nature of the data set: Saliva-based blocking EIA: Norwalk virus VLP binding to H antigen. To be noted: for EC50: Norwalk VLP binding to H antigen, read-out: EC50 rNorwalk H. Set-up: species or system Norovirus.
Text: as §1, §2, §3, §4, §5

Data set [3] deals with MOH binding to the B antigen. Nature of the data set: Saliva-based blocking EIA: MOH VLP binding to B antigen. The arrangement: species or system Norovirus. The note with it: MOH VLP binding to type B saliva; read-out: EC50 rMOH B.
Text: as §1, §2, §3, §4, §5

The target of data set [4] is VA387 binding to the B antigen. Nature of the data set: Saliva-based blocking EIA: VA387 VLP binding to B antigen. The note with it: for EC50: VA387 VLP binding to B antigen saliva, read-out: EC50 rVA387 B; for inhibition of VA387 binding to the B antigen: one saliva sample. Set-up: species or system Norovirus.
Text: as §1, §2, §3, §4, §5

Data set [5] deals with VA387 binding to the H antigen. The data set can be described thus: Saliva-based blocking EIA: VA387 VLP binding to H antigen. The arrangement: species or system Norovirus. To be noted: for EC50: VA387 VLP binding to H antigen saliva, read-out: EC50 rVA387 H; for inhibition of VA387 binding to the H antigen: one saliva sample.
Text: as §1, §2, §3, §4, §5

In data set [6] the test system is Human cervical carcinoma cells (HeLa). The data set can be described thus: MTS cytotoxicity assay, HeLa cells. Type of data set: cell-based. The note with it: 3 days, average of three experiments. In general terms: Tetrazolium assays rely on reduction of a dye to a coloured formazan, in cell work by metabolically active cells.
Data set [7] has as its target MOH binding to the A antigen. The data set can be described thus: Saliva-based blocking EIA: MOH VLP binding to A antigen. The note with it: MOH VLP binding to type A saliva; read-out: EC50 rMOH A. Set-up: species or system Norovirus.
Text: as §1, §2, §3, §4, §5

The target in data set [8] is VA207 binding to the Lewis antigens. The data set can be described thus: Saliva-based blocking EIA: VA207 VLP binding to Lewis antigens. To be noted: VA207 VLP binding to Lewis antigen; read-out: EC50 rVA207 Le. The arrangement: species or system Norovirus.
Text: as §1, §2, §3, §4, §5

The target of data set [9] is VA387 VLPs binding to the A antigen. Nature of the data set: Saliva-based blocking EIA: VA387 VLP binding to type A saliva. The arrangement: species or system Norovirus. The note with it: read-out: EC50 rVA387 A.
Text: as §1, §2, §3, §4, §5

One may read the EC50 as the concentration needed to bring the measured effect to its halfway point. Broadly, the CC50 is the concentration giving 50% cytotoxicity. Read a high CC50 as lower toxicity to the cells. With `CCOC(=O)C1=C(C)OC(N)=C(C#N)C1c1ccc(OCc2ccc(C)cc2)c([N+](=O)[O-])c1` (stereo not shown) [Compound 2], in data set [1], the “blocking of Norwalk virus binding to the A antigen” value is recorded as “blocked”. For the same compound, the EC50 in data set [1] was found to be 22.9 µM; in data set [2] it was 24.5 µM; in [3] it was 13.3 µM; in data set [4], 18.6 µM; in data set [5], 11.9 µM; in data set [7], 16.5 µM. The EC50 in data set [8] was > 100 µM; in [9] it was 4.8 µM. Besides, the “inhibition of Norwalk virus binding to the H antigen” value in data set [2] was “inhibited”. The “inhibition of VA387 binding to the B antigen” value (“inhibition … to the B antigen” for short) in data set [4] was “dose-dependant inhibition”. Besides, the “inhibition of VA387 binding to the H antigen” value in [5] was “dose-dependant inhibition”. Further, in [6], it took 78.6 µM to reach half-maximal cytotoxicity (CC50).
`CCCc1ccc(OCc2ccc(C(=O)N/N=C/c3ccc(Cl)cc3O)o2)cc1` [Compound 5]: in data set [1], the “blocking of Norwalk virus binding to the A antigen” value is “blocked”. The EC50 was 18.2 µM in data set [1]; 36.3 µM in [2]; > 100 µM in data set [3]; 13.5 µM in [4]; 7.2 µM in data set [5]; > 100 µM in data set [7]. In addition, the figures for the EC50 in [8] and in data set [9] were > 100 µM and 9.1 µM, respectively. Further, the “inhibition of Norwalk virus binding to the H antigen” value in data set [2] is on record as “inhibited”. Also, the “inhibition … to the B antigen” value in [4] is reported as “dose-dependant inhibition”. The “inhibition of VA387 binding to the H antigen” value in [5] is “dose-dependant inhibition”. The CC50 in data set [6] was found to be 46.7 µM.
Consider `Cc1cc(O)c(Sc2c(O)cc(C)cc2C(C)(C)c2ccccc2)c(C(C)(C)c2ccccc2)c1` [Compound 13], for which the EC50 in data set [1] was > 100 µM; in data set [2] it was > 100 µM; in data set [3], > 100 µM; in data set [4] it was 49.5 µM; in data set [5] it was 48.1 µM; in data set [7] it was > 100 µM. In addition, the EC50 in [8] was > 100 µM; in [9] it was 13.6 µM. The “inhibition … to the B antigen” value in data set [4] was “dose-dependant inhibition”. Besides, the “inhibition of VA387 binding to the H antigen” value in data set [5] is “dose-dependant inhibition”. Also, the CC50 in [6] amounted to 70.6 µM.
